The experiment concerns the target integrin α2β1 (Homo sapiens, UniProt P05556+P17301). The experiment in a line: HT 1080 cell adhesion assay on rat tail collagen I. Further details: HT1080 (human fibrosarcoma) cells (or human airway smooth muscle cells) were detached and resuspended in serum-free DMEM; endogenous in cells; host or cells: HT1080 human fibrosarcoma cells. Conditions: HT1080 (human fibrosarcoma) cells on rat tail collagen I, absorbance at 595 nm, triplicate; read-out: IC50s from HT 1080 Cell adhesion assay. The class given is cell-based. As for the experimental part: Cell adhesion Assay: Ninety-six-well flat-bottomed tissue culture plates were coated with rat tail collagen I for 1 hour at 37° C. After incubation, wells were blocked with 1% BSA at 37° C. for 1 hour. Control wells were filled with 1% BSA. HT1080 (human fibrosarcoma) cells (or human airway smooth muscle cells) were detached and resuspended in serum-free DMEM. Cells were incubated with anti-integrin alpha2 antibody control or 10-fold dilutions of each compound with a starting concentration of 10 uM for 15 minutes at 4° C. before plating. The plates were centrifuged at 10 g for 5 minutes before incubation for 1 hour at 37° C. in humidified 5% CO2. Nonadherent cells were removed by centrifugation (top side down) at 10 g for 5 minutes. Attached cells were stained with 0.5% crystal violet, and the wells were washed with PBS. The relative number of cells in each well was evaluated after solubilization in 40 μl of 2% Triton X-100 by measuring absorbance at 595 nm in a microplate reader. All determinations were carried out in triplicate.
Chain of integrin α2β1 (P17301 30-1181): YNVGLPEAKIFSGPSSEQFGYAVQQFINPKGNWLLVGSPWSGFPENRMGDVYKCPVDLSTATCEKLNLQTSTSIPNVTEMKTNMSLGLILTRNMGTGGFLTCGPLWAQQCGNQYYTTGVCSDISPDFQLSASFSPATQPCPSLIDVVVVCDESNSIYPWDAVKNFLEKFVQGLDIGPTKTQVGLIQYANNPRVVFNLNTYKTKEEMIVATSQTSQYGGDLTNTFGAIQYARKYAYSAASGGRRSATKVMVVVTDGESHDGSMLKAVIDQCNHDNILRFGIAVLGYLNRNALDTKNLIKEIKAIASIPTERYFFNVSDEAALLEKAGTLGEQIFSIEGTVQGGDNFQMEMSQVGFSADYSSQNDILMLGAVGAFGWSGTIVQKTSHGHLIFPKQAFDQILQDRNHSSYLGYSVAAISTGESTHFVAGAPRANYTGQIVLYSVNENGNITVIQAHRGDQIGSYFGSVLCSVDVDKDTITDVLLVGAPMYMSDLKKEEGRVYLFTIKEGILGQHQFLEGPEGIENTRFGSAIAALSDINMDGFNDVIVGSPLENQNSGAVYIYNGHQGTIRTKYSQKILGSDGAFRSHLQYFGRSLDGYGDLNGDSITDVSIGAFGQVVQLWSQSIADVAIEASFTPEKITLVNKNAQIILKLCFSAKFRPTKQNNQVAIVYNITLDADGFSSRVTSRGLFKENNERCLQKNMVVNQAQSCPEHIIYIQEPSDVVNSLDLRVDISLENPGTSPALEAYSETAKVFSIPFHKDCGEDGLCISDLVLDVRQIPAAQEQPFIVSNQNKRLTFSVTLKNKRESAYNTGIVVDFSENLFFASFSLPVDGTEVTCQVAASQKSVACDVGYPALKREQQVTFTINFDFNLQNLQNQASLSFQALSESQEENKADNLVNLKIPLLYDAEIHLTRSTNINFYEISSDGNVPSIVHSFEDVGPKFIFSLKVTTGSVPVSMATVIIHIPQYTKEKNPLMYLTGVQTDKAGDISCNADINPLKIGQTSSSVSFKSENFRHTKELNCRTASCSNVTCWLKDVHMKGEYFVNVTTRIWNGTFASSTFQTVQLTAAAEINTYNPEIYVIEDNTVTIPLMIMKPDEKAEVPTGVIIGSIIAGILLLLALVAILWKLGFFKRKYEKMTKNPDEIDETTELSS
Chain of integrin α2β1 (P05556 21-798): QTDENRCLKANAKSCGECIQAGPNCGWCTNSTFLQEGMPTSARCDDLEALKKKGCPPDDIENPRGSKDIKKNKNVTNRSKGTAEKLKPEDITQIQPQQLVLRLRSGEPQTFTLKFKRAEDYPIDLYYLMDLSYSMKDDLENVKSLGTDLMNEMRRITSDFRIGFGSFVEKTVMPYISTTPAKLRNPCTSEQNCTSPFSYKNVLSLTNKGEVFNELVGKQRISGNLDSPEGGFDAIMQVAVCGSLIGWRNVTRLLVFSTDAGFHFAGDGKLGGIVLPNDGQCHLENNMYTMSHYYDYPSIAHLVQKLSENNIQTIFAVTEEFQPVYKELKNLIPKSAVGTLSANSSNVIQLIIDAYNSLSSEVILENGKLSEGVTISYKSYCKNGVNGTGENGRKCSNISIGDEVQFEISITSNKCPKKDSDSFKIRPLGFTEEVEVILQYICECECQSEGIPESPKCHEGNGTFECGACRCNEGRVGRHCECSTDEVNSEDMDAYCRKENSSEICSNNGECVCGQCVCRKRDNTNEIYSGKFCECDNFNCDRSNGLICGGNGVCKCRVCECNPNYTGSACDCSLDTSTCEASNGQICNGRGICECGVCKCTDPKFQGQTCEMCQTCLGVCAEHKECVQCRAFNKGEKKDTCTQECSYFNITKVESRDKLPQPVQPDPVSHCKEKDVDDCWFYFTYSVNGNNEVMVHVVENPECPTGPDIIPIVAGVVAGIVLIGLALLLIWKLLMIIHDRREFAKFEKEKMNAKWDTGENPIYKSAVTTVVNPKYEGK
Consider `Cc1ccccc1CNC(=O)NC[C@H](NC(=O)c1c(Cl)cccc1Cl)C(=O)O` [KZ-1-39, (S)-2-(2,6-dichlorobenzamido)-3-(3-(2-methylbenzyl)ureido)propanoic acid], for which the IC50 lay in the range of 10 to 100 µM. Next, `COc1cccc(CNC(=O)NC[C@H](NC(=O)c2c(Cl)cccc2Cl)C(=O)O)c1` [KZ-1-15, (S)-2-(2,6-dichlorobenzamido)-3-(3-(3-methoxybenzyl)ureido)propanoic acid]: 10 to 100 µM. Take `O=C(NCCc1ccccc1)NC[C@H](NC(=O)c1c(Cl)cccc1Cl)C(=O)O` [KZ-1-11, (S)-2-(2,6-dichlorobenzamido)-3-(3-phenethylureido)propanoic acid]: the IC50 is more than 100 µM.

Regarding `O=C(NCc1ccccc1)NC[C@H](NC(=O)C1CCCCC1)C(=O)O` [A2-63, (S)-3-(3-benzylureido)-2-(cyclohexanecarboxamido)propanoic acid], the IC50 was more than 100 µM. Next, `O=C(NCc1ccccc1)NC[C@H](NC(=O)c1c(Cl)cncc1Cl)C(=O)O` [A2-29, (S)-3-(3-benzylureido)-2-(3,5-dichloroisonicotinamido)propanoic acid]: less than 10 µM; `COc1cc(C)c(C(=O)N[C@@H](CNC(=O)NCc2ccccc2)C(=O)O)c(C)c1` [A2-60, (S)-3-(3-benzylureido)-2-(4-methoxy-2,6-dimethylbenzamido)propanoic acid]: 10 to 100 µM; `O=C(NC[C@H](NC(=O)c1c(Cl)cccc1Cl)C(=O)O)N[C@H]1CCCc2ccccc21` [A2-125, (S)-2-(2,6-dichlorobenzamido)-3-(3-((S)-1,2,3,4-tetrahydronaphthalen-1-yl)ureido)propanoic acid]: less than 10 µM.

As to `O=C(NC[C@H](NC(=O)c1c(Cl)cccc1Cl)C(=O)O)NC(c1ccccc1)c1ccccc1` [A2-127, (S)-3-(3-benzhydrylureido)-2-(2,6-dichlorobenzamido)propanoic acid], the IC50 lay within 10 to 100 µM.

As to `CC(C)(C)CNC(=O)NC[C@H](NC(=O)c1c(Cl)cccc1Cl)C(=O)O` [KZ-1-40, (S)-2-(2,6-dichlorobenzamido)-3-(3-neopentylureido)propanoic acid], the IC50 was more than 100 µM. Next, `COc1ccc(CNC(=O)NC[C@H](NC(=O)c2c(Cl)cccc2Cl)C(=O)O)cc1` [KZ-1-20, (S)-2-(2,6-dichlorobenzamido)-3-(3-(4-methoxybenzyl)ureido)propanoic acid]: more than 100 µM. Consider `C[C@@H]1[C@H]2C[C@@H](C[C@H]1NC(=O)NC[C@H](NC(=O)c1c(Cl)cccc1Cl)C(=O)O)C2(C)C` [A2-170, (S)-2-(2,6-dichlorobenzamido)-3-(3-((1R,2R,3R,5S)-2,6,6-trimethylbicyclo[3.1.1]heptan-3-yl)ureido)propanoic acid], for which the IC50 is 10 to 100 µM. The result for `CC(NC(=O)NC[C@H](NC(=O)c1c(Cl)cccc1Cl)C(=O)O)C12CC3CC(CC(C3)C1)C2` (stereo partly drawn) [A2-132, (2S)-3-(3-(1-(adamantan-1-yl)ethyl)ureido)-2-(2,6-dichlorobenzamido)propanoic acid] reads 10 to 100 µM; that for `O=C(NCC1CC2CCC1C2)NC[C@H](NC(=O)c1c(Cl)cccc1Cl)C(=O)O` (stereo partly drawn) [A2-174, (2S)-3-(3-(bicyclo[2.2.1]heptan-2-ylmethyl)ureido)-2-(2,6-dichlorobenzamido)propanoic acid], 10 to 100 µM.

As to `O=C(NCC1CCCCC1)NC[C@H](NC(=O)c1c(Cl)cccc1Cl)C(=O)O` [KZ-1-22, (S)-3-(3-(cyclohexylmethyl)ureido)-2-(2,6-dichlorobenzamido)propanoic acid], the IC50 is more than 100 µM. Next, `CC(CC12CC3CC(CC(C3)C1)C2)NC(=O)NC[C@H](NC(=O)c1c(Cl)cccc1Cl)C(=O)O` (stereo partly drawn) [A2-155, (2S)-3-(3-(1-(adamantan-1-yl)propan-2-yl)ureido)-2-(2,6-dichlorobenzamido)propanoic acid]: 10 to 100 µM.

Regarding `O=C(NCCC1C2CC3CC(C2)CC1C3)NC[C@H](NC(=O)c1c(Cl)cccc1Cl)C(=O)O` (stereo partly shown) [A2-134], the IC50 lay in the range of 10 to 100 µM. The result for `O=C(NC[C@H](NC(=O)c1c(Cl)cccc1Cl)C(=O)O)N[C@H]1CCc2ccccc21` [A2-86, (S)-2-(2,6-dichlorobenzamido)-3-(3-((S)-2,3-dihydro-1H-inden-1-yl)ureido)propanoic acid] reads 10 to 100 µM; that for `O=C(NC[C@H](NC(=O)c1c(Cl)cccc1Cl)C(=O)O)NC1CCC2(CCCCC2)CC1` [A2-179, (S)-2-(2,6-dichlorobenzamido)-3-(3-(spiro[5.5]undecan-3-yl)ureido)propanoic acid], 10 to 100 µM. The result for `O=C(NCc1ccco1)NC[C@H](NC(=O)c1c(Cl)cccc1Cl)C(=O)O` [KZ-1-17, (S)-2-(2,6-dichlorobenzamido)-3-(3-(furan-2-ylmethyl)ureido)propanoic acid] reads more than 100 µM; that for `C[C@@H](NC(=O)NC[C@H](NC(=O)c1c(Cl)cccc1Cl)C(=O)O)c1ccccc1` [KZ-1-12, (S)-2-(2,6-dichlorobenzamido)-3-(3-((R)-1-phenylethyl)ureido)propanoic acid], 10 to 100 µM; that for `COc1ccccc1CNC(=O)NC[C@H](NC(=O)c1c(Cl)cccc1Cl)C(=O)O` [KZ-1-14, (S)-2-(2,6-dichlorobenzamido)-3-(3-(2-methoxybenzyl)ureido)propanoic acid], 10 to 100 µM. Next, `O=C(CC1CCCCC1)N[C@@H](CNC(=O)NCc1ccccc1)C(=O)O` [A2-64, (S)-3-(3-benzylureido)-2-(2-cyclohexylacetamido)propanoic acid]: more than 100 µM; `CC(C)CC(=O)N[C@@H](CNC(=O)NCc1ccccc1)C(=O)O` [A2-37, (S)-3-(3-benzylureido)-2-(3-methylbutanamido)propanoic acid]: more than 100 µM. As for `O=C(NCCC12CC3CC(CC(C3)C1)C2)NC[C@H](NC(=O)c1c(Cl)cccc1Cl)C(=O)O` [A2-154, (S)-3-(3-(2-(adamantan-1-yl)ethyl)ureido)-2-(2,6-dichlorobenzamido)propanoic acid], the IC50 is 10 to 100 µM.

For `O=C(NC[C@H](NC(=O)c1c(Cl)cccc1Cl)C(=O)O)NC1CCc2ccccc2C1` (stereo partly drawn) [A2-126, (2S)-2-(2,6-dichlorobenzamido)-3-(3-(1,2,3,4-tetrahydronaphthalen-2-yl)ureido)propanoic acid], the IC50 was less than 10 µM. The result for `Cc1ccc(CNC(=O)NC[C@H](NC(=O)c2c(Cl)cccc2Cl)C(=O)O)cc1` [KZ-1-9, (S)-2-(2,6-dichlorobenzamido)-3-(3-(4-methylbenzyl)ureido)propanoic acid] reads more than 100 µM; that for `Cc1cc(OC(C)C)cc(C)c1C(=O)N[C@@H](CNC(=O)NCc1ccccc1)C(=O)O` [A2-61, (S)-3-(3-benzylureido)-2-(4-isopropoxy-2,6-dimethylbenzamido)propanoic acid], 10 to 100 µM; that for `O=C(NC[C@H](NC(=O)c1c(Cl)cccc1Cl)C(=O)O)Nc1ccccc1` [KZ-1-25, (S)-2-(2,6-dichlorobenzamido)-3-(3-phenylureido)propanoic acid], more than 100 µM. On to `O=C(NC[C@H](NC(=O)c1c(Cl)cccc1Cl)C(=O)O)NC12CCC3CC(CC(C3)C1)C2` [A2-181, (25)-2-(2,6-dichlorobenzamido)-3-(3-(tricyclo[4.3.1.13,8]undecan-3-yl)ureido)propanoic acid], for which the IC50 fell in the range of 10 to 100 µM. The result for `O=C(NC[C@H](NC(=O)c1c(Cl)cccc1Cl)C(=O)O)NC1CCC2(CC1)C1CC3CC(C1)CC2C3` (stereo partly drawn) [A2-180, (S)-2-(2,6-dichlorobenzamido)-3-(3-(spiro[adamantane-2,1′-cyclohexan]-4′-yl)ureido)propanoic acid] reads 10 to 100 µM; that for `O=C(NC[C@H](NC(=O)c1c(Cl)cccc1Cl)C(=O)O)NC12CC3CC(CC(C3)C1)C2` [A2-87], 10 to 100 µM; that for `CC12CC3CC(C1)CC(NC(=O)NC[C@H](NC(=O)c1c(Cl)cccc1Cl)C(=O)O)(C3)C2` [A2-157, (S)-2-(2,6-dichlorobenzamido)-3-(3-(3-methyladamantan-1-yl)ureido)propanoic acid], 10 to 100 µM.

In the case of `O=C(NCC1CC2CCC1CC2)NC[C@H](NC(=O)c1c(Cl)cccc1Cl)C(=O)O` (stereo partly shown) [A2-175], the IC50 is 10 to 100 µM. For `CC12CC3CC(C)(C1)CC(NC(=O)NC[C@H](NC(=O)c1c(Cl)cccc1Cl)C(=O)O)(C3)C2` [A2-128, (S)-2-(2,6-dichlorobenzamido)-3-(3-(3,5-dimethyladamantan-1-yl)ureido)propanoic acid], the IC50 is 10 to 100 µM. Next, `O=C(NC[C@H](NC(=O)c1c(Cl)cccc1Cl)C(=O)O)NC1C2CC3CC(C2)CC1C3` (stereo partly drawn) [A2-130, (S)-3-(3-(adamantan-2-yl)ureido)-2-(2,6-dichlorobenzamido)propanoic acid]: less than 10 µM; `Cc1cccc(CNC(=O)NC[C@H](NC(=O)c2c(Cl)cccc2Cl)C(=O)O)c1` [KZ-1-16, (S)-2-(2,6-dichlorobenzamido)-3-(3-(3-methylbenzyl)ureido)propanoic acid]: 10 to 100 µM; `Cc1cc(C)c(C(=O)N[C@@H](CNC(=O)NCc2ccccc2)C(=O)O)c(C)c1` [A2-26, (S)-3-(3-benzylureido)-2-(2,4,6-trimethylbenzamido)propanoic acid]: 10 to 100 µM.

For the origin of these results see patent publication US11597727B2 (THE REGENTS OF THE UNIVERSITY OF CALIFORNIA, priority 2018, dated 2023).
